From patent US7795261B2, “Substituted 1-piperidin-4-yl-4-pyrrolidin-3-yl-piperazine derivatives and their use as neurokinin antagonists” (Janssen Pharmaceutica NV, priority 2002, dated 2010) come the findings set out here.

The target in experiment [1] is NK1 (Homo sapiens, UniProt P25103). As to the kind of experiment: Signal transduction (ST), intracellular Ca++ (FLIPR), NK1 antagonistic activity. The class given is cell-based. Particulars: read-out: pIC50 NK1 (converted). The protocol:
(§1) This test evaluates in vitro functional NK1 antagonistic activity. For the measurements of intracellular Ca^++ concentrations the cells were grown on 96-well (black wall/transparent bottom) plates from Costar for 2 days until they reached confluence. The cells were loaded with 2 μM Fluo3 in DMEM containing 0.1% BSA and 2.5 mM probenecid for 1 h at 37° C. They were washed 3× with a Krebs buffer (140 mM NaCl, 1 mM MgCl2×6H2O, 5 mM KCl, 10 mM glucose, 5 mM HEPES; 1.25 mM CaCl2; pH 7.4) containing 2.5 mM probenecid and 0.1% BSA (Ca^++-buffer). The cells were preincubated with a concentration range of antagonists for 20 min at RT and Ca^++-signals after addition of the agonists were measured in a Fluorescence Image Plate Reader (FLIPR from Molecular Devices, Crawley, England). The peak of the Ca^++-transient was considered as the relevant signal and the mean values of corresponding wells were analysed as described below.
The sigmoidal dose response curves were analysed by computerised curve-fitting, using the GraphPad Program. […] For antagonist responses the IC50-value was calculated using non-linear regression. […]

Experiment [2] deals with T1, NK3 (Homo sapiens, UniProt P29371).
T1 sequence (P29371 1-465): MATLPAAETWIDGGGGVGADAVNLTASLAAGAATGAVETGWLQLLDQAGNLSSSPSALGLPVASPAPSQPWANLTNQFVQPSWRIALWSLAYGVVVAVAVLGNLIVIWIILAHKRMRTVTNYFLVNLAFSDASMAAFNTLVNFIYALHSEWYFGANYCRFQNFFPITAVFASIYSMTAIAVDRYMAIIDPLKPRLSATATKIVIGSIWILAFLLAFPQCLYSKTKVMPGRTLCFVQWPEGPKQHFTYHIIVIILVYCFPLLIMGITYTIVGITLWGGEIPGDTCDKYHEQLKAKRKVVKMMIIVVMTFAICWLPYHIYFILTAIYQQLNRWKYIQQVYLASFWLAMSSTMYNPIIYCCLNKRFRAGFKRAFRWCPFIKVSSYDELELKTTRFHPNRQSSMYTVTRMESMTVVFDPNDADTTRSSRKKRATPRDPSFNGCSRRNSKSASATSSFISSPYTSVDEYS
As to the kind of experiment: Signal transduction (ST), intracellular Ca++ (FLIPR), NK3. To be noted: read-out: pIC50 NK3 (converted). The class given is cell-based. The protocol: [The procedure below names another target; the source lists this target under the same test.] as §1
The sigmoidal dose response curves were analysed by computerised curve-fitting, using the GraphPad Program. […] For antagonist responses the IC50-value was calculated using non-linear regression.
The last columns indicates—without being limited therefore—for which the compounds might be most suitable. Of course, since for some neurokinin receptors no data was determined, it is obvious that these compounds might be attributed to another suitable use.

NK1, sequence (P25103 whole entry): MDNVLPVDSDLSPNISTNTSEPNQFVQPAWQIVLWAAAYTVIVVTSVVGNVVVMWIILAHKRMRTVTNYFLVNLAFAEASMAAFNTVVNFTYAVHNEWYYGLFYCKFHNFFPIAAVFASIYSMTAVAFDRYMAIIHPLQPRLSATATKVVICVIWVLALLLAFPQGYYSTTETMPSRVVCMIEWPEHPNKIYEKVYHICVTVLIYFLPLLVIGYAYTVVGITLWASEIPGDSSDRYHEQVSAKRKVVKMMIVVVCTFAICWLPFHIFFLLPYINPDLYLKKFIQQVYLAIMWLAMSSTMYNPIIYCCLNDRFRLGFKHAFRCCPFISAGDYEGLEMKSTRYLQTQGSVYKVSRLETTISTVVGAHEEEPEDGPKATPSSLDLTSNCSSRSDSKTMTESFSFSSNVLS

For `O=C(c1ccccc1Cl)N1CCC(N2CCN([C@@H]3CCN(C(=O)c4cc(C(F)(F)F)cc(C(F)(F)F)c4)[C@H](Cc4ccc(Cl)c(Cl)c4)C3)CC2)C1` (relative stereo) [Compound 141], the IC50 in experiment [1] is 126 nM; in experiment [2] it was 3160 nM. Take `O=C(c1cc(C(F)(F)F)cc(C(F)(F)F)c1)N1CC[C@@H](N2CCN(C3CCN(S(=O)(=O)c4cccs4)C3)CC2)C[C@H]1Cc1ccc(Cl)c(Cl)c1` (relative stereo) [Compound 142]: the IC50 in experiment [1] was 126 nM; in experiment [2], 794 nM. Consider `O=C(C1CC1)N1CCC(N2CCN([C@@H]3CCN(C(=O)c4cc(C(F)(F)F)cc(C(F)(F)F)c4)[C@H](Cc4ccc(Cl)c(Cl)c4)C3)CC2)C1` (relative stereo) [Compound 143], for which the IC50 was 39.8 nM in experiment [1] and 3160 nM in experiment [2]. For `O=C(c1cc(C(F)(F)F)cc(C(F)(F)F)c1)N1CC[C@H](N2CCN(C3CCN(S(=O)(=O)c4cccs4)C3)CC2)C[C@H]1Cc1ccc(Cl)c(Cl)c1` (relative stereo) [Compound 163], the IC50 in experiment [1] was 25.1 nM; in experiment [2] it was 158 nM. Regarding `O=C(C1CC1)N1CCC(N2CCN(C3CCN(C(=O)c4cc(C(F)(F)F)cc(C(F)(F)F)c4)C(Cc4ccccc4)C3)CC2)C1` (single isomer, unassigned) [Compound 70], the IC50 is 12.6 nM in experiment [1] and 501 nM in experiment [2]. The like results for `O=C(c1ccccc1Cl)N1CCC(N2CCN(C3CCN(C(=O)c4cc(C(F)(F)F)cc(C(F)(F)F)c4)C(Cc4ccccc4)C3)CC2)C1` (single isomer, unassigned) [Compound 87] were, in that order, 126 nM and 1260 nM. Consider `O=C(C1CCOC1)N1CCC(N2CCN(C3CCN(C(=O)c4cc(C(F)(F)F)cc(C(F)(F)F)c4)C(Cc4ccccc4)C3)CC2)C1` (single isomer, unassigned) [Compound 129], for which, in experiment [1], the IC50 was 251 nM. `O=C(C1CC1)N1CCC(N2CCN(C3CCN(C(=O)c4cc(C(F)(F)F)cc(C(F)(F)F)c4)C(Cc4ccccc4)C3)CC2)C1` (single isomer, unassigned) [Compound 137]: the IC50 in experiment [1] is 158 nM; in experiment [2], 6310 nM. As to `O=C(c1ccoc1)N1CCC(N2CCN(C3CCN(C(=O)c4cc(C(F)(F)F)cc(C(F)(F)F)c4)C(Cc4ccccc4)C3)CC2)C1` (single isomer, unassigned) [Compound 138], the results for the IC50 in experiment [1] and in experiment [2] were 126 nM and 6310 nM, respectively. `O=C(c1cc(C(F)(F)F)cc(C(F)(F)F)c1)N1CCC(N2CCN(C3CCNC3)CC2)CC1Cc1ccc(F)c(F)c1` (single isomer, unassigned) [Compound 212]: the IC50 in experiment [1] was 50.1 nM. For the compound `O=C(c1cc(C(F)(F)F)cc(C(F)(F)F)c1)N1CCC(N2CCN(C3CCNC3)CC2)CC1Cc1ccc(F)c(F)c1` (single isomer, unassigned) [Compound 225], in experiment [1], the IC50 was 15.8 nM.

For `CC(C)(C)OC(=O)N1CCC(N2CCN(C3CCN(C(=O)c4cc(C(F)(F)F)cc(C(F)(F)F)c4)C(Cc4ccc(Cl)c(Cl)c4)C3)CC2)C1` (single isomer, unassigned) [Compound 243], in experiment [1], the IC50 was 200 nM.

Take `O=C(c1cc(C(F)(F)F)cc(C(F)(F)F)c1)N1CCC(N2CCN(C3CCN(Cc4ccccc4)C3)CC2)CC1Cc1ccccc1` (stereo not shown) [Compound 1]: the IC50 in experiment [1] is 100 nM.

For `O=C(c1cc(C(F)(F)F)cc(C(F)(F)F)c1)N1CCC(N2CCN(C3CCNC3)CC2)CC1Cc1ccccc1` (stereo not shown) [Compound 2], the IC50 in experiment [1] was 63.1 nM. As to `COC(=O)CCN1CCC(N2CCN(C3CCN(C(=O)c4cc(C(F)(F)F)cc(C(F)(F)F)c4)C(Cc4ccccc4)C3)CC2)C1` (stereo not shown) [Compound 80], the IC50 in experiment [1] is 100 nM. On the same count and under the same terms, the same measure for `Cc1cc(C)cc(C(=O)N2CC[C@H](N3CCN(C4CCN(C(=O)c5ccoc5)C4)CC3)C[C@H]2Cc2ccccc2)c1` (stereo partly shown) [Compound 85]: 31.6 nM; for `CN1CCN(C(C(=O)N2CCC(N3CCN([C@H]4CCN(C(=O)c5cc(C(F)(F)F)cc(C(F)(F)F)c5)[C@H](Cc5ccccc5)C4)CC3)C2)c2ccccc2)CC1` (stereo partly shown) [Compound 105]: 63.1 nM; for `O=C(c1cc(C(F)(F)F)cc(C(F)(F)F)c1)N1CC[C@H](N2CCN(C3CCNC3)CC2)C[C@@H]1Cc1ccccc1` (stereo partly shown) [Compound 118]: 126 nM. Consider `O=C(c1ccccc1)N1CCC(N2CCN([C@@H]3CCN(C(=O)c4cc(C(F)(F)F)cc(C(F)(F)F)c4)[C@H](Cc4ccccc4)C3)CC2)C1` (stereo partly shown) [Compound 136], for which, in experiment [1], the IC50 is 200 nM. Same read-out and setting: under `O=C([C@@H]1CCCN1)N1CCC(N2CCN([C@H]3CCN(C(=O)c4cc(C(F)(F)F)cc(C(F)(F)F)c4)[C@H](Cc4ccccc4)C3)CC2)C1` (stereo partly shown) [Compound 144] stands 126 nM; under `O=C(c1cc(C(F)(F)F)cc(C(F)(F)F)c1)N1CC[C@H](N2CCN([C@H]3CCNC3)CC2)C[C@H]1Cc1ccccc1` [Compound 148], 63.1 nM; under `O=C(c1cc(C(F)(F)F)cc(C(F)(F)F)c1)N1CC[C@H](N2CCN([C@@H]3CCNC3)CC2)C[C@H]1Cc1ccccc1` [Compound 149], 39.8 nM.

Regarding `CN(C)CCN1CCC[C@H]1C(=O)N1CCC(N2CCN([C@H]3CCN(C(=O)c4cc(C(F)(F)F)cc(C(F)(F)F)c4)[C@H](Cc4ccccc4)C3)CC2)C1` (stereo partly shown) [Compound 185], the IC50 in experiment [1] is 50.1 nM. On to `CC(=O)N1CCC[C@H]1C(=O)N1CCC(N2CCN([C@H]3CCN(C(=O)c4cc(C(F)(F)F)cc(C(F)(F)F)c4)[C@H](Cc4ccccc4)C3)CC2)C1` (stereo partly shown) [Compound 186], for which the IC50 in experiment [1] is 100 nM. As for `O=C(CN1CCCC1)N1CCC(N2CCN(C3CCN(C(=O)c4cc(C(F)(F)F)cc(C(F)(F)F)c4)C(Cc4ccccc4)C3)CC2)C1` (stereo not shown) [Compound 196], in experiment [1], the IC50 was 20 nM. In the case of `O=C(CN1CCOCC1)N1CCC(N2CCN([C@H]3CCN(C(=O)c4cc(C(F)(F)F)cc(C(F)(F)F)c4)[C@H](Cc4ccccc4)C3)CC2)C1` (stereo partly shown) [Compound 197], in experiment [1], the IC50 is 25.1 nM. On the same count and under the same terms, the same measure for `O=C(CN1CCNCC1)N1CCC(N2CCN([C@H]3CCN(C(=O)c4cc(C(F)(F)F)cc(C(F)(F)F)c4)[C@H](Cc4ccccc4)C3)CC2)C1` (stereo partly shown) [Compound 201]: 50.1 nM. On to `Cc1nccn1CC(=O)N1CCC(N2CCN(C3CCN(C(=O)c4cc(C(F)(F)F)cc(C(F)(F)F)c4)C(Cc4ccccc4)C3)CC2)C1` (stereo not shown) [Compound 209], for which, in experiment [1], the IC50 was 20 nM. On to `O=C(C1CCNC1)N1CCC(N2CCN([C@H]3CCN(C(=O)c4cc(C(F)(F)F)cc(C(F)(F)F)c4)[C@H](Cc4ccccc4)C3)CC2)C1` (stereo partly shown) [Compound 235], for which the IC50 in experiment [1] is 39.8 nM.

For the compound `O=C(C1CCCNC1)N1CCC(N2CCN([C@H]3CCN(C(=O)c4cc(C(F)(F)F)cc(C(F)(F)F)c4)[C@H](Cc4ccccc4)C3)CC2)C1` (stereo partly shown) [Compound 240], the IC50 in experiment [1] is 31.6 nM. In the case of `O=C(C1CCNCC1)N1CCC(N2CCN(C3CCN(C(=O)c4cc(C(F)(F)F)cc(C(F)(F)F)c4)C(Cc4ccccc4)C3)CC2)C1` (stereo not shown) [Compound 241], the IC50 in experiment [1] is 31.6 nM. On the same count and under the same terms, the same measure for `O=C(c1cc(C(F)(F)F)cc(C(F)(F)F)c1)N1CCC(N2CCN(C3CCNC3)CC2)CC1Cc1ccc(Cl)c(Cl)c1` (stereo not shown) [Compound 244]: 79.4 nM; for `O=C(C1CC1)N1CC[C@H](N2CCN([C@@H]3CCN(C(=O)c4cc(C(F)(F)F)cc(C(F)(F)F)c4)[C@@H](Cc4ccc(Cl)c(Cl)c4)C3)CC2)C1` [Compound 245]: 50.1 nM. `O=C(c1c(Cl)cccc1Cl)N1CC[C@H](N2CCN([C@@H]3CCN(C(=O)c4cc(C(F)(F)F)cc(C(F)(F)F)c4)[C@@H](Cc4ccc(Cl)c(Cl)c4)C3)CC2)C1` [Compound 246]: the IC50 in experiment [1] is 126 nM. Turning to `CC(C)(C)C(=O)N1CC[C@H](N2CCN([C@@H]3CCN(C(=O)c4cc(C(F)(F)F)cc(C(F)(F)F)c4)[C@@H](Cc4ccc(Cl)c(Cl)c4)C3)CC2)C1` [Compound 247], the IC50 in experiment [1] is 31.6 nM. Consider `CC(C)N/C(=C\[N+](=O)[O-])N1CCC(N2CCN(C3CCN(C(=O)c4cc(C(F)(F)F)cc(C(F)(F)F)c4)C(Cc4ccccc4)C3)CC2)C1` (stereo not shown) [Compound 354], for which the IC50 in experiment [1] was 31.6 nM. Same read-out and setting: under `COCCOCC(=O)N1CCC(N2CCN([C@H]3CCN(C(=O)c4cc(C(F)(F)F)cc(C(F)(F)F)c4)[C@H](Cc4ccccc4)C3)CC2)C1` (stereo partly shown) [Compound 390] stands 20 nM. Same read-out and setting: the same measure for `O=C(c1cc(C(F)(F)F)cc(C(F)(F)F)c1)N1CCC(N2CCN(C3CCN(CCCCO)C3)CC2)CC1Cc1ccc(Cl)c(Cl)c1` (stereo not shown) [Compound 393]: 5.01 nM.
